We go through 42 compounds from patent US6403561B1, “Tripeptidylpeptidase inhibitors” (Institut National de la Sante et de la Recherche Medicale …, priority 1998, dated 2002).

The term melting point denotes the temperature, or range, at which the solid turns liquid. For orientation: pKi means −log10 of the Ki, conventionally taken in molar units.

The target of series [1] is membrane-bound tripeptidylpeptidase II (Rattus norvegicus, UniProt Q64560). Nature of the series: Measurement of the activity of membrane-bound tripeptidylpeptidase (release of Amc from A-AP-Amc, fluorimetry). Particulars: apparent dissociation constant calculated from the 50% inhibitory concentration and the KM of the substrate (23 μM), rat brain membranes, 50 μM A-AP-Amc.
Protocol: Membranes from rat brain were obtained by centrifugation (200,000×g min) of a homogenate prepared in 10 volumes of 50 mM potassium phosphate buffer, pH 7.4.
After washing thoroughly, the centrifugation pellet is taken up in the buffer containing 10% glycerol and 0.1% Brij 35 in order to obtain a concentration of 25 mg of proteins/ml.
The release of Amc is evaluated by fluorimetry.

pKi: −log10 of the molar value. Where a name gives a salt, the structure may show the parent alone. Where a SMILES comes first, the peptide text is derived from it. [ ]: non-standard residue; d: D form. The star is where a group is joined. ξ: configuration not given here. Oic = O=C(O)[C@@H]1C[C@@H]2CCCC[C@@H]2N1; Pro(cis-4-F) = O=C(O)[C@@H]1C[C@H](F)CN1; Tic = O=C(O)[C@@H]1Cc2ccccc2CN1; Abu = CC[C@H](N)C(=O)O; ξAbu = CCC(N)C(=O)O; NHBu = CCCCN*; NHPr = CCCN*

membrane-bound tripeptidylpeptidase II, sequence (Q64560 whole entry): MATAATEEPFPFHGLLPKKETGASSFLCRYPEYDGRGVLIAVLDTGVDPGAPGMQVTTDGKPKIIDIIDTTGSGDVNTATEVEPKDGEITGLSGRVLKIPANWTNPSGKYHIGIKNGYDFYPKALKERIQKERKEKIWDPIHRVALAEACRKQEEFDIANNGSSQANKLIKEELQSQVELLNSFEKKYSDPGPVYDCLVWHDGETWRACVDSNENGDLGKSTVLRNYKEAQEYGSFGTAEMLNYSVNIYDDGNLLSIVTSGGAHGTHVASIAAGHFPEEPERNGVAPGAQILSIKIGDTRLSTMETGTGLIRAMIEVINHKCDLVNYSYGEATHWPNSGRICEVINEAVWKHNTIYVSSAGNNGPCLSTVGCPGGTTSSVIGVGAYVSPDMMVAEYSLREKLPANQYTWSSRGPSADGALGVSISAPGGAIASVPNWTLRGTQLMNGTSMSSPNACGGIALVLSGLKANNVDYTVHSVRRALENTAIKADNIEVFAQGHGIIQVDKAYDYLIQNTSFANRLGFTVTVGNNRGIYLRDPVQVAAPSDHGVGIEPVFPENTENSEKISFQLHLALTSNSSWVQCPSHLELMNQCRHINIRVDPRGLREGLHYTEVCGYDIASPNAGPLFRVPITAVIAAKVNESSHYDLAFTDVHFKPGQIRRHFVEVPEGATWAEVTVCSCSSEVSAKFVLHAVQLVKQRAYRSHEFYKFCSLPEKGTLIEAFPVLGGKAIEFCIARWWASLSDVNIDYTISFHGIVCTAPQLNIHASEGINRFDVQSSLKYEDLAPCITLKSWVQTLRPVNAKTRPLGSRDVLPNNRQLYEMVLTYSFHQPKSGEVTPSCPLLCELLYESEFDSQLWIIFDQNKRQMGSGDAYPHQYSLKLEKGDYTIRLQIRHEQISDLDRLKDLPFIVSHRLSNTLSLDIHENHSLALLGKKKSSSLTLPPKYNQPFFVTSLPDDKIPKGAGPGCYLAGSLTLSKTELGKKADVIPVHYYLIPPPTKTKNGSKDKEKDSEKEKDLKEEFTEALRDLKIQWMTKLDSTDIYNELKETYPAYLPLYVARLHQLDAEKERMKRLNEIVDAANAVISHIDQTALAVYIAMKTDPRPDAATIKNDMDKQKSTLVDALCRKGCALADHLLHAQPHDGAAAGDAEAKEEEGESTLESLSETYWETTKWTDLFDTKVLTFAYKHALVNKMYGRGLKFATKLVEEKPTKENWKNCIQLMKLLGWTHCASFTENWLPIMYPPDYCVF

Turning to `CCCNC(=O)[C@@H]1Cc2ccccc2N1C(=O)[C@@H](N)CC` (as salt: oxalate) (hydrate or solvate), the melting point is 130 to 131 °C.
Same read-out and setting: then `CC[C@H](N)C(=O)N1c2ccccc2C[C@H]1C(=O)NC` (as salt: oxalate) (hydrate or solvate) [Example 16, 1-(2(S)-aminobutyryl)-2(S)-indolinecarboxylic Acid methylamide], with 138 to 139 °C; and `CCCCCCNC(=O)[C@@H]1CCCN1C(=O)[C@@H](N)C(C)C` (as salt: oxalate) [Example 1, L-valyl-L-proline n-hexylamide], with 146 to 147 °C.
The same measure, in the same setting: then `CC[C@H](N)C(=O)N1CCC[C@H]1C(=O)NCCCSC` (as salt: oxalate) [Example 2, 1-(2(S)-amino-butyryl)-L-proline 3-(methylthio)propylamide], with 120 to 121 °C; and `CCCCCNC(=O)[C@@H]1CCCN1C(=O)[C@@H](N)CC` (as salt: oxalate) [Example 3, 1-(2(S)-aminobutyryl)-L-proline n-pentylamide], with 140 to 141 °C.
On the same count and under the same terms, the figure for `CCCCNC(=O)[C@@H]1CCCN1C(=O)[C@@H](N)CC` (as salt: oxalate) [Example 4, 1-(2(S)-amino-butyryl)-L-proline n-butylamide] (H-[Abu]-Pro-NHBu) is 165 to 167 °C.
In turn, `CC[C@H](C)CNC(=O)[C@@H]1CCCN1C(=O)[C@@H](N)CC` (as salt: oxalate) [Example 5, 1-(2(S)-aminobutyryl)-L-proline [2(S)methyl]butylamide] registered a melting point of 135 to 136 °C.
As for `CCCCNC(=O)[C@@H]1CCCN1C(=O)[C@@H](N)C(C)C` (as salt: oxalate) [Example 8, L-valyl-L-proline n-butylamide] (H-Val-Pro-NHBu), the melting point lay within 165 to 166 °C.
Compound `CCCCNC(=O)[C@@H]1Cc2ccccc2CN1C(=O)[C@@H](N)CC` (as salt: oxalate) [Example 13, 2-(2(S)-amino-butyryl)-1,2,3,4-tetrahydro-3(S)-isoquinolinecarboxylic Acid n-butylamide] (H-[Abu]-[Tic]-NHBu) returned a melting point of 105 to 110 °C.
For `CCCCNC(=O)[C@@H]1C[C@@H]2CCCC[C@@H]2N1C(=O)[C@@H](N)CC` (as salt: salt) [Example 22, 1-(2(S)-aminobutyryl)-2(S)-[(3aS,7aS)-perhydro]indolinecarboxylic Acid N-butylamide] (H-[Abu]-[Oic]-NHBu), the melting point is 168 to 169 °C.
Same read-out and setting: the figure for `CCCNC(=O)[C@@H]1CCCN1C(=O)[C@@H](N)CC` (as salt: trifluoroacetate) [Example 6, 1-(2(S)-amino-butyryl)-L-proline n-propylamide] (H-[Abu]-Pro-NHPr) is 46 to 51 °C; for `CC[C@H](N)C(=O)N1CCC[C@H]1C(=O)NCC(C)C` (as salt: trifluoroacetate) [Example 7, 1-(2(S)-amino-butyryl)-L-proline isobutylamide] it is 58 to 61 °C; for `CCCCNC(=O)C1Cc2cc(OC)ccc2N1C(=O)[C@@H](N)CC` (mixture of isomers) (as salt: oxalate) [Example 18, 1-(2(S)-amino-butyryl)-2(R/S)-(5-methoxy)indolinecarboxylic Acid n-butylamide] it is 95 to 105 °C.
`CCCCNC(=O)C1Cc2cc(OC)ccc2N1C(=O)[C@@H](N)CC` (mixture of isomers) [Example 18, 1-(2(S)-amino-butyryl)-2(R/S)-(5-methoxy)indolinecarboxylic Acid n-butylamide]: in series [1] (Ki), the pKi was 8.10.
For `CCCCNC(=O)C1Cc2ccc(OC)cc2N1C(=O)[C@@H](N)CC` (mixture of isomers) [Example 19, 1-(2(S)-aminobutyryl)-2(R/S)-(6-methoxy)indolinecarboxylic acid n-butylamide], in series [1] (Ki), the pKi was 7.11.
`CCCCNC(=O)C1Cc2cc(F)ccc2N1C(=O)[C@@H](N)CC` (mixture of isomers) [Example 20, 1-(2(S)-aminobutyryl)-2(R/S)-(5-fluoro)indolinecarboxylic Acid N-butylamide]: the pKi in series [1] (Ki) is 7.92.
Take `CCCCNC(=O)C1Cc2cc(OCc3ccccc3)ccc2N1C(=O)[C@@H](N)CC` (mixture of isomers) [Example 21]: in series [1] (Ki), the pKi is 6.00.
The same measure, in the same setting: then `CCCCNC(=O)C1c2ccccc2CN1C(=O)[C@@H](N)CC` (mixture of isomers) [Example 23, 2-(2(S)-aminobutyryl)-1-(R/S)-isoindolinecarboxylic Acid N-butylamide], with 6.84; and `CCCCNC(=O)C1Cc2cc(OC)ccc2N1C(=O)[C@@H](N)C(C)C` (mixture of isomers) [Example 24, 1-(L-valyl)-5-methoxyindoline-2(R/S)-carboxylic Acid Butylamide Oxalate], with 6.84; and `CCCCNC(=O)C1Cc2cc(OC)ccc2N1C(=O)[C@H](C)N` (mixture of isomers) [Example 25, 1-(L-alanyl)-5-methoxyindoline-2(R/S)-carboxylic Acid Butylamide Oxalate], with 7.59.
Same read-out and setting: the figure for `CCCCNC(=O)C1Cc2c(OC)cccc2N1C(=O)[C@@H](N)CC` (mixture of isomers) [Example 27, 1-(2(S)-aminobutyryl)-4-methoxyindoline-2(R/S)-carboxylic Acid Butylamide Oxalate] is 7.85; for `CCCCNC(=O)C1N(C(=O)[C@@H](N)CC)c2ccccc2C1(C)C` (mixture of isomers) [Example 28, 1-(2(S)-aminobutyryl)-3,3-dimethylindoline-2(R/S)-carboxylic Acid Butylamide Oxalate] it is 6.06.
For `CCCCNC(=O)C1Cc2c(ccc(OC)c2OC)N1C(=O)[C@@H](N)CC` (mixture of isomers) [Example 32, 1-(2(S)-aminobutyryl)-4,5-dimethoxyindoline-2(R/S)-carboxylic Acid Butylamide Oxalate], the pKi in series [1] (Ki) was 8.02.
Same read-out and setting: then `CCCCNC(=O)C1Cc2cc(O)ccc2N1C(=O)[C@@H](N)CC` (mixture of isomers) [Example 34, 1-2(S)-aminobutyryl-5-hydroxyindoline-2(R/S)-carboxylic Acid Butylamide Oxalate], with 7.98; and `CCCCNC(=O)C1Cc2cc(C)ccc2N1C(=O)[C@@H](N)CC` (mixture of isomers) [Example 35, 1-2(S)-aminobutyryl-5-methylindoline-2(R/S)-carboxylic Acid Butylamide Oxalate], with 7.65.
On to `CCCCNC(=O)C1C(C)c2ccccc2N1C(=O)C(N)CC` (single isomer, unassigned) [Example 29], for which, in series [1] (Ki), the pKi is 6.23.
Regarding `CCCCNC(=O)C1C(C)c2ccccc2N1C(=O)C(N)CC` (single isomer, unassigned) [Example 30], the negative logarithm of the Ki (pKi) in series [1] (Ki) is 7.49.
Turning to `CCC(N)C(=O)N1CCC[C@H]1C(N)=O` (stereo partly drawn) [2 (S)-aminobutyryl-L-prolineamide, reference compound] (H-[ξAbu]-Pro-NH2), the pKi in series [1] (Ki) was 6.24.
On to `CCCCNC(=O)[C@H]1Cc2cc(OC)ccc2N1C(=O)[C@@H](N)CC` [18 (S,R) isomer], for which the pKi in series [1] (Ki) is 6.62.
In the case of `CCCCNC(=O)[C@@H]1Cc2cc(OC)ccc2N1C(=O)[C@@H](N)CC` [18 (S,S) isomer], the pKi in series [1] (Ki) is 8.22.
On the same count and under the same terms, the figure for `CCCCCCNC(=O)[C@@H]1CCCN1C(=O)[C@@H](N)C(C)C` [Example 1, L-valyl-L-proline n-hexylamide] is 6.05; for `CC[C@H](N)C(=O)N1CCC[C@H]1C(=O)NCCCSC` [Example 2, 1-(2(S)-amino-butyryl)-L-proline 3-(methylthio)propylamide] it is 6.52; for `CCCCCNC(=O)[C@@H]1CCCN1C(=O)[C@@H](N)CC` [Example 3, 1-(2(S)-aminobutyryl)-L-proline n-pentylamide] it is 6.57.
On the same count and under the same terms, then `CCCCNC(=O)[C@@H]1CCCN1C(=O)[C@@H](N)CC` [Example 4, 1-(2(S)-amino-butyryl)-L-proline n-butylamide] (H-[Abu]-Pro-NHBu), with 7.00; and `CC[C@H](C)CNC(=O)[C@@H]1CCCN1C(=O)[C@@H](N)CC` [Example 5, 1-(2(S)-aminobutyryl)-L-proline [2(S)methyl]butylamide], with 6.30.
On to `CCCNC(=O)[C@@H]1CCCN1C(=O)[C@@H](N)CC` [Example 6, 1-(2(S)-amino-butyryl)-L-proline n-propylamide] (H-[Abu]-Pro-NHPr), for which the pKi in series [1] (Ki) was 7.10.
With `CC[C@H](N)C(=O)N1CCC[C@H]1C(=O)NCC(C)C` [Example 7, 1-(2(S)-amino-butyryl)-L-proline isobutylamide], the pKi in series [1] (Ki) is 6.49.
The same measure, in the same setting: the figure for `CCCCNC(=O)[C@@H]1CCCN1C(=O)[C@@H](N)C(C)C` [Example 8, L-valyl-L-proline n-butylamide] (H-Val-Pro-NHBu) is 6.24; for `CCCCNC(=O)[C@@H]1C[C@H](F)CN1C(=O)[C@@H](N)CC` [Example 11, 1-(2(S)-amino-butyryl)-(4(S)-fluoro)-L-proline n-butylamide] (H-[Abu]-[Pro(cis-4-F)]-NHBu) it is 6.49.
On to `CCCCNC(=O)[C@@H]1C[C@H](Cc2ccccc2)CN1C(=O)[C@@H](N)CC` [Example 12, 1-(2(S)-aminobutyryl)-(4(S)-benzyl)-L-proline n-butylamide], for which the pKi in series [1] was 6.85.
Take `CCCCNC(=O)[C@@H]1Cc2ccccc2CN1C(=O)[C@@H](N)CC` [Example 13, 2-(2(S)-amino-butyryl)-1,2,3,4-tetrahydro-3(S)-isoquinolinecarboxylic Acid n-butylamide] (H-[Abu]-[Tic]-NHBu): in series [1] (Ki), the pKi is 7.40.
As for “L-alanyl-L-prolyldifluoro-L-borovaline borohydride [Example 10]”, the pKi in series [1] was 9.52.
